Structures can show the parent of a compound that is named as a salt.

The target in data set [1] is T1, 5-HT2A (Rattus norvegicus, UniProt P14842). Kind of data set: 5-HT2 Receptor Binding Assay ([125I]DOI competition). Particulars: competition for [125I]DOI binding, rat or human cerebral cortex homogenates. The procedure: 5-HT2 Receptor Binding Assay
Aliquots of post mortem rat or human cerebral cortex homogenates (400 μL) dispersed in 50 mM Tris HCl buffer (pH 7.4) are incubated with [^125I]DOI (80 pM final) in the absence or presence of methiothepin (10 μM final) to define total and non-specific binding, respectively, in a total volume of 0.5 mL. The assay mixture is incubated for 1 hour at 23° C. in polypropylene tubes and the assays terminated by rapid vacuum filtration over Whatman GF/B glass fiber filters previously soaked in 0.3% polyethyleneimine using ice-cold buffer. Test compounds (at different concentrations) are substituted for methiothepin. Filter-bound radioactivity is determined by scintillation spectrometry on a beta counter. The data are analyzed using a non-linear, iterative curve-fitting computer program [Trends Pharmacol. Sci., 16, 413 (1995)] to determine the compound affinity parameter. The concentration of the compound needed to inhibit the [^125I]DOI binding by 50% of the maximum is termed the IC50 or Ki value.

For data set [2], the target named is T1, 5-HT2A. As to the kind of experiment: 5-HT2 functional Assay: [Ca2+]i Mobilization (FLIPR). The class given is cell-based. Further details: endogenous in cells; host or cells: A7r5 rat vascular smooth muscle cells. Conditions: for EC50: [Ca2+]i mobilization, A7r5 rat vascular smooth muscle cells, FLIPR; for Emax: percentage of a maximum 5-HT-induced response, A7r5 cells. The method, then:
5-HT2 functional Assay: [Ca^2+]i Mobilization
The receptor-mediated mobilization on intracellular calcium ([Ca^2+]i) was studied using the Fluorescence Imaging Plate Reader (FLIPR) instrument. Rat vascular smooth muscle cells, A7r5, were grown in a normal media of DMEM/10% FBS and 10 μg/mL gentamycin. Confluent cell monolayers were trypsinized, pelleted, and re-suspended in normal media. Cells were seeded in a 50 μL volume at a density of 20,000 cells/well in a black wall, 96-well tissue culture plate and grown for 2 days.
On the day of the experiment, one vial of FLIPR Calcium Assay Kit dye was re-suspended in 50 mL of a FLIPR buffer consisting of Hank's Balanced Salt Solution (HBSS), 20 mM HEPES, and 2.5 mM probenecid, pH 7.4. Cells were loaded with the calcium-sensitive dye by addition of an equal volume (50 μL) to each well of the 96-well plate and incubated with dye for 1 h at 23° C.
Typically, test compounds were stored at 25 μM in 50% DMSO/50% Ethanol solvent. Compounds were diluted 1:50 in 20% DMSO/20% Ethanol. For “hit” screening, compounds were further diluted 1:10 in FLIPR buffer and tested at a final concentration of 10 μM. For dose-response experiments, compounds were diluted 1:50 in FLIPR buffer and serially diluted 1:10 to give a 5- or 8-point dose-response curve.
The compound plate and cell plate were placed in the FLIPR instrument. At the beginning of an experimental run, a signal test was performed to check the basal fluorescence signal from the dye-loaded cells and the uniformity of the signal across the plate. The basal fluorescence was adjusted between 8000-12000 counts by modifying the exposure time, the camera F-stop, or the laser power. Instrument settings for a typical assay were the following: laser power 0.3-0.6 W, camera F-stop F/2, and exposure time 0.4 sec. An aliquot (25 μL) of the test compound was added to the existing 100 μL dye-loaded cells at a dispensing speed of 50 μL/sec. Fluorescence data were collected in real-time at 1.0 sec intervals for the first 60 secs and at 6.0 sec intervals for an additional 120 secs. Responses were measured as peak fluorescence intensity minus basal and where appropriate were expressed as a percentage of a maximum 5-HT-induced response. When the compounds were tested as antagonists against 10 μM 5-HT, they were incubated with the cells for 15 minutes prior to the addition of 5-HT.

T1 sequence (P14842 whole entry): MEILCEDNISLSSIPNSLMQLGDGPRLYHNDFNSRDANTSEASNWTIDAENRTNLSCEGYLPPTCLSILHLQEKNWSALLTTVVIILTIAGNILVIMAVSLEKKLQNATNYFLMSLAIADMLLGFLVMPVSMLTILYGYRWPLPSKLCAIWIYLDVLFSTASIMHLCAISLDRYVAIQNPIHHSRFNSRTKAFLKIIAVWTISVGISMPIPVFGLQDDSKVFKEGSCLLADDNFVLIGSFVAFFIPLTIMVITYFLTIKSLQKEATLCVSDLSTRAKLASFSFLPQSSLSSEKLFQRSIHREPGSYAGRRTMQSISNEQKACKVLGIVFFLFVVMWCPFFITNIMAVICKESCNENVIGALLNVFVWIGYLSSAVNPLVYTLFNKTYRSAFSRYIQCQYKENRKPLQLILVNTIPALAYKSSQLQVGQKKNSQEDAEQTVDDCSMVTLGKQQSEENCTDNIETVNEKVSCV

For `C[C@H](N)Cn1ncc2ccc3c(c21)N(C)CCO3.O=C(O)/C=C/C(=O)O` [Example 1, (S)-2-(8,9-dihydro-9-methyl-7H-[1,4]oxazino[2,3-g]indazol-1-yl)-1-methylethylamine fumarate], the melting point (usually the temperature of the solid-liquid transition) was 185 to 187 °C. In addition, on 5-HT2A [1], the IC50 (usually the midpoint of a concentration-inhibition curve) stood at 1 nM. Further, on 5-HT2A [2], the EC50 (commonly the concentration giving half of the maximal effect) was found to be 20 nM and the Emax (in general, the size of the effect at its maximum, as opposed to the concentration needed) was 82%.

`C[C@H](N)Cn1ncc2ccc3c(c21)NC(=O)CO3.Cl` [Example 2, 1-((S)-2-Aminopropyl)-1,9-dihydro-7H-[1,4]oxazino[2,3-g]indazol-8-one hydrochloride] displayed a melting point of 293 to 295 °C. At 5-HT2A [1], this compound returned an IC50 of 3.5 nM. Further, on 5-HT2A [2], a half-maximal response (EC50) required 195 nM and the Emax is 60%.

In the case of `C[C@H](N)Cn1ncc2ccc3c(c21)N(C)C(=O)CO3` [Example 3, 1-((S)-2-Aminopropyl)-1,9-dihydro-9-methyl-7H-[1,4]oxazino[2,3-g]indazol-8-one hydrochloride], on 5-HT2A [1], the IC50 came to 7.6 nM. At 5-HT2A [2], this compound registered an EC50 of 550 nM and an Emax of 41%.

Source of the values: patent US7268131B2, “Substituted [1,4]oxazino[2,3-g]indazoles for the treatment of glaucoma” (Alcon, Inc., priority 2003, dated 2007).
